Measured values: patent US20100135992A1, “Prolongation of Survival of an Allograft by Inhibiting Complement Activity” (Alexion Pharmaceuticals, Inc., priority 2006, published 2010)

Tested on: terminal complement activity
Experiment: Complement hemolytic assay of recipient mouse sera (heart model)
Type: in vivo
Details: POD3, presensitized heart recipients, FIG. 3
Protocol: Complement Hemolytic Assay The purified anti-C5 mAb was serially diluted twofold (175-0.1 μg/ml) in GVB^2+ buffer (gelatin Veronal-buffered saline: 0.1% gelatin, 141 mM NaCl, 0.5 mM MgCl2, 0.15 mM CaCl2, and 1.8 mM sodium barbital) and added in triplicate (50 μl/well) to a 96-well plate. BALB/c mouse serum was diluted to 40% v/v with GVB^2+ buffer and added ([…]) to the rows of the same 96-well plate such that the final concentration of BALB/c mouse serum in each well was 20%. The plate was then incubated at room temperature for approximately 30 min while chicken erythrocytes were prepared. Chicken erythrocytes were washed 5×1 ml with GVB^2+ buffer and resuspended to a final concentration of 5×10^7/ml in GVB^2+. Four milliliters of the chicken erythrocytes were sensitized by adding anti-chicken RBC polyclonal antibody (Intercell Technologies, Hopewell, N.J., 0.1% v/v) and the cells were incubated at 4° C. for 15 min with frequent vortexing. The cells were then washed 2×1 ml with GVB^2+ and resuspended to a final volume of 2.4 ml in GVB^2+. […] The plate was read at OD 415 nm using a microplate reader and the percentage of hemolysis was determined using this formula: […]
In the current study, terminal complement activity was measured by assessing the ability of recipient mouse sera to lyse antibody presensitized chicken erythrocytes and was compared at the same time-point (POD3).

SMILES: O=P1(N(CCCl)CCCl)NCCCO1 (stereo not shown) [CyP, cyclophosphamide]
- terminal complement activity (lysis of antibody presensitized chicken erythrocytes by recipient sera): no effect
